Test results from US11254640B2, “N-substituted indoles and other heterocycles for treating brain disorders” (The Regents of the University of California, priority 2019, dated 2022).
“Also recorded” adds a separate entry of the source. Where a name gives a salt, the structure may show the parent alone. Read-outs that look alike come from different tables or passages of the source.

Key:
cortical neurons = assay: Dendritogenesis assay, Sholl analysis; format: cell-based, rat; settings: for Emax at 10 µM: Rattus norvegicus, Cortical neurone, Nmax with vehicle (DMSO) = 0% and ketamine = 100%, read-out: % efficacy in sholls; for dendritic arbor complexity / neuronal growth (Nmax of Sholl plots): cortical neurons; for Emax at 10 µM / dendritic arbor complexity / neuronal growth (Nmax of Sholl plots): 10 μM
From the text: Dendritogenesis Assays. Phenotypic screening has historically proven more successful than target-based approaches for identifying drugs with novel mechanisms of action. Having established a simple and robust method for accessing isoDMT analogs, tested next was their ability to increase dendritic arbor complexity in cultures of cortical neurons using a phenotypic assay. Following treatment, neurons were fixed and visualized using an antibody against MAP2—a cytoskeletal protein localized to the somatodendritic compartment of neurons. Sholl analysis was then performed, and the maximum number of crossings (Nmax) was used as a quantitative metric of dendritic arbor complexity. For statistical comparisons between specific compounds, the raw Nmax values were compared. Percent efficacies were determined by setting the Nmax values for the vehicle (DMSO) and positive (ketamine) controls equal to 0% and 100%, respectively.
Animals. For the dendritogenesis experiments, timed pregnant Sprague Dawley rats were obtained from Charles River Laboratories (Wilmington, Mass.). For the head-twitch response assay, male and female C57BL/6J mice were obtained from Jackson Laboratory (Sacramento, Calif.). Mice were housed in a temperature and humidity-controlled room maintained on a 12-h light/dark cycle in groups of 4-5 (same sex). Animals weighed between 17 and 30 g at the time of the experiments. All experimental procedures involving rodents were approved by the UC Davis Institutional Animal Care and Use Committee (IACUC) and adhered to principles described in the National Institutes of Health Guide for the Care and Use of Laboratory Animals. The University of California, Davis and the University of California, San Francisco are accredited by the Association for Assessment and Accreditation of Laboratory Animal Care International (AAALAC).
Dendritogenesis—Sholl Analysis. Dendritogenesis experiments were performed following a previously published method with slight modifications. Neurons were plated in 96-well format (200 μL of media per well) at a density of approximately 15,000 cells/well in Neurobasal (Life Technologies) containing 1% penicillin-streptomycin, 10% heat-inactivated fetal bovine serum, and 0.5 mM glutamine. After 24 h, the medium was replaced with Neurobasal containing 1× B27 supplement (Life Technologies), 1% penicillin-streptomycin, 0.5 mM glutamine, and 12.5 μM glutamate. After 3 days in vitro (DIV3), the cells were treated with compounds. All compounds tested in the dendritogenesis assays were treated at 10 μM unless noted otherwise. Stock solutions of the compounds in DMSO were first diluted 100-fold in Neurobasal before an additional 10-fold dilution into each well (total dilution=1:1000; 0.1% DMSO concentration). Treatments were randomized. After 1 h, the media was removed and replaced with new Neurobasal media containing 1× B27 supplement, 1% penicillin-streptomycin, 0.5 mM glutamine, and 12.5 μM glutamate. The cells were allowed to grow for an additional 71 h. At that time, neurons were fixed by removing 80% of the media and replacing it with a volume of 4% aqueous paraformaldehyde (Alfa Aesar) equal to 50% of the working volume of the well. Then, the cells were incubated at room temperature for 20 min before the fixative was aspirated and each well washed twice with DPBS. Cells were permeabilized using 0.2% Triton X-100 (ThermoFisher) in DPBS for 20 minutes at room temperature without shaking. Plates were blocked with antibody diluting buffer (ADB) containing 2% bovine serum albumin (BSA) in DPBS for 1 h at room temperature. Then, plates were incubated overnight at 4° C. with gentle shaking in ADB containing a chicken anti-MAP2 antibody (1:10,000; EnCor, CPCA-MAP2). The next day, plates were washed three times with DPBS and once with 2% ADB in DPBS. […]

5HT2A sensor [1] = assay: 5HT2A sensor assay, agonist mode (sLight1.3s HEK293T stable line); format: cell-based; settings: percent relative to 5-HT at 100 uM; for 5HT2A Agonist mean @ 100 nM (%): 100 nM compound; for 5HT2A Agonist mean @ 10 μM (%): 10 μM compound; for 5HT2A Agonist mean @ 100 μM (%): 100 μM compound
In short: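 Fluorescence change, dFF=(Fsat−Fapo)/Fapo, was taken from membrane images (460 nm excitation) before and after compound addition and scaled as % activation, with the DMSO mean as 0 and the 5HT mean as 100. The cells were sLight1.3s HEK293T in HBSS. Final compound levels were 100 μM, 10 μM and 100 nM in 0.1% DMSO, in triplicate.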

5HT2A = target: T1, 5HT2A (Homo sapiens, UniProt P28223); assay: Calcium flux assay (Calcium secondary messenger pathway); format: cell-based; settings: agonist mode
T1 construct: expressed in transfected cells
In short: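 Gq-coupled calcium mobilization in cells stably expressing 5HT2A, loaded 30–60 min at 37 °C with calcium-sensitive dye in HBSS/20 mM Hepes with 2.5 mM probenecid. Compound added 5 s into a 2-min FLIPR Tetra fluorescence read at room temperature; % activity relative to vehicle and maximal control-ligand RFU.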

5HT2A sensor [2] = assay: 5HT2A sensor assay, antagonist mode (sLight1.3s HEK293T stable line); format: cell-based; settings: relative to 5-HT at 100 nM; for 5HT2A Antagonist mean @ 100 nM (%): 100 nM compound; for 5HT2A Antagonist mean @ 10 μM (%): 10 μM compound; for 5HT2A Antagonist mean @ 100 μM (%): 100 μM compound
In short: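 Inactivation score is computed from membrane dFF as (dFF(compound+5HT)−dFF(5HT))/dFF(5HT), with HBSS-only fluorescence as Fapo. Final concentrations: 5-HT 100 nM added first, then compound at 100 nM, 10 μM or 100 μM in 0.1% DMSO. Triplicates; FITC imaging, 5 fields per well.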

rat cortical neurons = assay: Neurite outgrowth assay; format: cell-based; settings: Cortical neurone, 1 hour treatment at DIV 4, analysed DIV 7, fold vs DMSO control
In short: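 Embryonic day 18 rat cortical neurons, 20,000 cells/well in Neurobasal/B27, were exposed at DIV 4 to 10 μM compound for 1 hour, then washed out. At DIV 7, β-III-tubulin immunostaining and automated imaging gave neurite length, branch points, root and extremity counts, reported as fold-change versus DMSO; triplicates.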

[3] = read-out: Neurite Average Length @ 10 μM
[4] = read-out: Neurite Branch Points: @ 10 μM

T1 sequence (P28223 whole entry): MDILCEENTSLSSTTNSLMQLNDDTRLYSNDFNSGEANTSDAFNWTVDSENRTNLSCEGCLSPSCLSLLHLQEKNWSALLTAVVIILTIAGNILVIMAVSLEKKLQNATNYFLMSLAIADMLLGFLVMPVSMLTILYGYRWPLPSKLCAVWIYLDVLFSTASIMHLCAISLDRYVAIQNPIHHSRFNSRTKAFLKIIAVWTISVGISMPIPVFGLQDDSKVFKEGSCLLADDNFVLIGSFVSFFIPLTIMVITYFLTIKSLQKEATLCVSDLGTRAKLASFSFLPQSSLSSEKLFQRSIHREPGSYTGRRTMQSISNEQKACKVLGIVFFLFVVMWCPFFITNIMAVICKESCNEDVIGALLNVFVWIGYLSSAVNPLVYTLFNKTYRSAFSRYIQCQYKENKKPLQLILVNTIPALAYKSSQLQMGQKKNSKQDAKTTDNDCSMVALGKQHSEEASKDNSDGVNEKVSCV

SMILES: CN(C)CCn1ccc2c(OCc3ccccc3)cccc21 (as salt: fumarate) [Example 8, 2-(4-(benzyloxy)-1H-indol-1-yl)-N,N-dimethylethan-1-amine]
- melting point: 145 to 150 °C

SMILES: CN(C)CCn1ccc2cc(OCc3ccccc3)ccc21 (as salt: fumarate) [Example 9, 2-(5-(benzyloxy)-1H-indol-1-yl)-N,N-dimethylethan-1-amine]
- melting point: 133 to 135 °C

SMILES: CN(C)CCn1ccc2c(F)cccc21 (as salt: fumarate) [Example 12, 2-(4-fluoro-1H-indol-1-yl)-N,N-dimethylethan-1-amine]
- melting point: 145 to 149 °C

SMILES: CN(C)CCn1ccc2cc(F)ccc21 (as salt: fumarate) [Example 13, 2-(5-fluoro-1H-indol-1-yl)-N,N-dimethylethan-1-amine]
- melting point: 145 to 148 °C

SMILES: CN(C)CCn1ccc2cccc(F)c21 (as salt: fumarate) [Example 15, 2-(7-fluoro-1H-indol-1-yl)-N,N-dimethylethan-1-amine]
- melting point: 168 to 170 °C

SMILES: CN(C)CCn1ccc2cc(F)c(F)cc21 (as salt: fumarate) [Example 17, 2-(5,6-difluoro-1H-indol-1-yl)-N,N-dimethylethan-1-amine]
- melting point: 162 to 165 °C

SMILES: CN(C)CCn1ccc2c(F)cc(F)cc21 (as salt: fumarate) [Example 18, 2-(4,6-difluoro-1H-indol-1-yl)-N,N-dimethylethan-1-amine]
- melting point: 141 to 145 °C

SMILES: CN(C)CCn1cccc1 (as salt: fumarate) [Example 23, N,N-dimethyl-2-(1H-pyrrol-1-yl)ethan-1-amine]
- melting point: 174 to 180 °C

SMILES: CN(C)CCc1cn(C)c2ccccc12 (as salt: fumarate) [Example 27, N,N-dimethyl-2-(1-methyl-1H-indol-3-yl)ethan-1-amine]
- melting point: 167 to 170 °C

SMILES: CN(C)CCn1ccc2ccccc21.O=C(O)/C=C/C(=O)O [Example 2, 2-(1H-indol-1-yl)-N,N-dimethylethan-1-amine]
- melting point: 147 to 149 °C
- Emax at 10 µM (cortical neurons): 87%
- psychoplastogenic efficacy and potency, concentration-response (Nmax) (cortical neurons; concentrations ranging from 10 μM to 10 pM (FIG. 6)): comparable maximum efficacies and had similar potencies as isosteric DMTs (1 and 28)
- dendritic arbor complexity / neuronal growth (Nmax of Sholl plots) (cortical neurons): increase dendritic arbor complexity to a comparable extent as DMT (1); also recorded: increased dendritic arbor complexity to a comparable extent as 1

SMILES: CN(C)CCn1ccc2ccc(F)cc21.O=C(O)/C=C/C(=O)O [Example 14, 2-(6-fluoro-1H-indol-1-yl)-N,N-dimethylethan-1-amine]
- melting point: 141 to 147 °C
- Emax at 10 µM (cortical neurons): 88%

SMILES: Cc1cc2ccccc2n1CCN(C)C.O=C(O)/C=C/C(=O)O [Example 16, N,N-dimethyl-2-(2-methyl-1H-indol-1-yl)ethan-1-amine]
- melting point: 131 to 133 °C
- Emax at 10 µM (cortical neurons): 104%
- dendritic arbor complexity / neuronal growth (Nmax of Sholl plots) (cortical neurons): well tolerated

SMILES: CN(C)CCn1ccc2ccc([N+](=O)[O-])cc21.O=C(O)/C=C/C(=O)O [Example 19, N,N-dimethyl-2-(6-nitro-1H-indol-1-yl)ethan-1-amine]
- melting point: 159 to 164 °C
- Emax at 10 µM (cortical neurons): 85%

SMILES: CN(C)CCn1ccc2cc(Br)ccc21.O=C(O)/C=C/C(=O)O [Example 20, 2-(5-bromo-1H-indol-1-yl)-N,N-dimethylethan-1-amine]
- melting point: 140 to 142 °C
- Emax at 10 µM (cortical neurons): 117%

SMILES: CN(C)CCn1cnc2ccccc21.O=C(O)/C=C/C(=O)O [Example 22, 2-(1H-benzo[d]imidazol-1-yl)-N,N-dimethylethan-1-amine]
- melting point: 171 to 178 °C
- Emax at 10 µM (cortical neurons): 50%
- dendritic arbor complexity / neuronal growth (Nmax of Sholl plots) (cortical neurons): minimal effect on the ability of these molecules to promote neuronal growth

SMILES: CN(C)CCn1c2ccccc2c2ccccc21.O=C(O)/C=C/C(=O)O [Example 24, 2-(9H-carbazol-9-yl)-N,N-dimethylethan-1-amine]
- melting point: 182 to 184 °C
- Emax at 10 µM (cortical neurons): 86%
- dendritic arbor complexity / neuronal growth (Nmax of Sholl plots) (cortical neurons): minimal effect on the ability of these molecules to promote neuronal growth

SMILES: CC[C@H](Cn1ccc2cc(OC)ccc21)N(C)C [Example 75, (R)-1-(5-methoxy-1H-indol-1-yl)-N,N-dimethylbutan-2-amine]
- 5HT2A Agonist mean @ 100 nM (%) (5HT2A sensor [1]): B (does not activate 5HT2A sensor assay in agonist mode)
- 5HT2A Agonist mean @ 10 μM (%) (5HT2A sensor [1]): B (does not activate 5HT2A sensor assay in agonist mode)
- 5HT2A Agonist mean @ 100 μM (%) (5HT2A sensor [1]): B (does not activate 5HT2A sensor assay in agonist mode)
- EC50 (5HT2A): > 10 µM
- 5HT2A Antagonist mean @ 100 nM (%) (5HT2A sensor [2]): A (inhibits 5HT response by >100%)
- 5HT2A Antagonist mean @ 10 μM (%) (5HT2A sensor [2]): A (inhibits 5HT response by >100%)
- 5HT2A Antagonist mean @ 100 μM (%) (5HT2A sensor [2]): A (inhibits 5HT response by >100%)
- fold induction at 10 µM (rat cortical neurons; [3]): < 1.5
- fold induction at 10 µM (rat cortical neurons; [4]): < 1.5

SMILES: CC[C@@H](Cn1ccc2cc(OC)ccc21)N(C)C [Example 76, (S)-1-(5-methoxy-1H-indol-1-yl)-N,N-dimethylbutan-2-amine]
- 5HT2A Agonist mean @ 100 nM (%) (5HT2A sensor [1]): B (does not activate 5HT2A sensor assay in agonist mode)
- 5HT2A Agonist mean @ 10 μM (%) (5HT2A sensor [1]): B (does not activate 5HT2A sensor assay in agonist mode)
- 5HT2A Agonist mean @ 100 μM (%) (5HT2A sensor [1]): B (does not activate 5HT2A sensor assay in agonist mode)
- EC50 (5HT2A): > 10 µM
- 5HT2A Antagonist mean @ 100 nM (%) (5HT2A sensor [2]): A (inhibits 5HT response by >100%)
- 5HT2A Antagonist mean @ 10 μM (%) (5HT2A sensor [2]): A (inhibits 5HT response by >100%)
- 5HT2A Antagonist mean @ 100 μM (%) (5HT2A sensor [2]): A (inhibits 5HT response by >100%)
- fold induction at 10 µM (rat cortical neurons; [3]): 1.5 to 3
- fold induction at 10 µM (rat cortical neurons; [4]): 1.5 to 3

SMILES: COc1ccc2c(ccn2CCN2CC3(COC3)C2)c1 [Example 84, 6-(2-(5-methoxy-1H-indol-1-yl)ethyl)-2-oxa-6-azaspiro[3.3]heptane]
- 5HT2A Agonist mean @ 100 nM (%) (5HT2A sensor [1]): B (does not activate 5HT2A sensor assay in agonist mode)
- 5HT2A Agonist mean @ 10 μM (%) (5HT2A sensor [1]): B (does not activate 5HT2A sensor assay in agonist mode)
- 5HT2A Agonist mean @ 100 μM (%) (5HT2A sensor [1]): A (activates 5HT2A sensor assay in agonist mode)
- EC50 (5HT2A): > 10 µM
- 5HT2A Antagonist mean @ 100 nM (%) (5HT2A sensor [2]): B (inhibits 5HT response by 75% to 100%)
- 5HT2A Antagonist mean @ 10 μM (%) (5HT2A sensor [2]): B (inhibits 5HT response by 75% to 100%)
- 5HT2A Antagonist mean @ 100 μM (%) (5HT2A sensor [2]): B (inhibits 5HT response by 75% to 100%)
- fold induction at 10 µM (rat cortical neurons; [3]): 1.5 to 3
- fold induction at 10 µM (rat cortical neurons; [4]): 1.5 to 3
